The results in this text go back to US10385097B2, “Ether compounds for treatment of medical disorders” (Achillion Pharmaceuticals, Inc., priority 2015, dated 2019).

In this test the target is T1, Human Factor D (Homo sapiens, UniProt P00746).
T1 construct: purified from human serum; purchased Complement Technology, Inc; host or cells: human serum (natural protein, not recombinant)
Put plainly: Human Factor D Assay. The format is biochemical. Here is the method:
Example 8. Human Factor D Assay
Human Factor D (purified from human serum, Complement Technology, Inc.) at 80 nM final concentration is incubated with test compound at various concentrations for 5 minutes at room temperature in 50 mM Tris, 1M NaCl, pH 7.5. A synthetic substrate Z-L-Lys-SBzl and DTNB (Ellman's reagent) are added to final concentrations of 100 μM each. Absorbance at 405 nm (A405) is recorded at 30 second intervals for 30 minutes using a microplate spectrophotometer. IC50 values are calculated by nonlinear regression of complement Factor D reaction rates as a function of test compound concentration.

Setting [1] is: Table 1, Human Factor D 80 nM, substrate Z-L-Lys-SBzl, read-out: IC50.
Where [2] appears, read: Table 2, Human Factor D 80 nM, substrate Z-L-Lys-SBzl, read-out: IC50.
Setting [3] is: Table 3, Human Factor D 80 nM, substrate Z-L-Lys-SBzl, read-out: (IC50 (Stars)).

Where two headings read alike, the source gives them in different places.

T1 sequence (P00746 26-253): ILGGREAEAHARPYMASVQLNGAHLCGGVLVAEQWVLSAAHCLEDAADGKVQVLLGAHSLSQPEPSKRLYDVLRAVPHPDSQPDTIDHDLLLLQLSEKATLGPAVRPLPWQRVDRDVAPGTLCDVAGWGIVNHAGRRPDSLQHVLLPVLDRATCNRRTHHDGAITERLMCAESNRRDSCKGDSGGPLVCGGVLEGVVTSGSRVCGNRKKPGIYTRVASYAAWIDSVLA

For `CC(=O)c1cn(CC(=O)N2C[C@H](F)C[C@H]2C(=O)Nc2ccc(OC(F)(F)F)c(F)c2)c2cc(OCP(=O)(O)O)ccc12` [Compound 25, (3-acetyl-1-(2-((2S,4R)-4-fluoro-2-(3-fluoro-4-(trifluoromethoxy)phenylcarbamoyl)pyrrolidin-1-yl)-2-oxoethyl)-1H-indol-6-yloxy)methylphosphonic acid], the IC50 under setting [1] was below 1000 nM.
The same measure, in the same setting: with `CC(=O)c1cn(CC(=O)N2C[C@H](F)C[C@H]2C(=O)Nc2cccc(Oc3ccccc3)c2)c2cc(OCP(=O)(O)O)ccc12` [Compound 26, (3-acetyl-1-(2-((2S,4R)-4-fluoro-2-(3-phenoxyphenylcarbamoyl)pyrrolidin-1-yl)-2-oxoethyl)-1H-indol-6-yloxy)methylphosphonic acid] the figure was below 1000 nM; with `CC(=O)c1cn(CC(=O)N2C[C@H](F)C[C@H]2C(=O)Nc2cccc(OC(F)(F)F)c2F)c2cc(OCP(=O)(O)O)ccc12` [Compound 27, (3-acetyl-1-(2-((2S,4R)-4-fluoro-2-(2-fluoro-3-(trifluoromethoxy)phenylcarbamoyl)pyrrolidin-1-yl)-2-oxoethyl)-1H-indol-6-yloxy)methylphosphonic acid], below 1000 nM; with `CC(C)(C)NS(=O)(=O)COc1ccc2c(C(N)=O)nn(CC(=O)N3C[C@H](F)C[C@H]3C(=O)Nc3cccc(-c4ccccc4Cl)c3F)c2c1` [Compound 28], below 1000 nM.
As to `NC(=O)c1nn(CC(=O)N2C[C@H](F)C[C@H]2C(=O)Nc2cccc(-c3ccccc3Cl)c2F)c2cc(OCS(N)(=O)=O)ccc12` [Compound 29], the IC50 under setting [1] is below 1000 nM.
Still for that read-out and setting: the value for `CC(=O)c1cn(CC(=O)N2C[C@H](F)C[C@H]2C(=O)NCc2cccc(Cl)c2F)c2cc(Oc3ncccn3)ccc12` [Compound 30, (2S,4R)-1-(2-(3-Acetyl-6-(pyrimidin-2-yloxy)-1H-indol-1-yl)acetyl)-N-(3-chloro-2-fluorobenzyl)-4-fluoropyrrolidine-2-carboxamide] was below 1000 nM.
With `NC(=O)c1nn(CC(=O)N2C[C@H](F)C[C@H]2C(=O)Nc2cccc(-c3ccccc3Cl)c2F)c2ccc(Oc3cncnc3)cc12` [Compound 31, 1-(2-((2S,4R)-2-((2′-Chloro-2-fluoro-[1,1′-biphenyl]-3-yl)carbamoyl)-4-fluoropyrrolidin-1-yl)-2-oxoethyl)-5-(pyrimidin-5-yloxy)-1H-indazole-3-carboxamide], the IC50 was below 1000 nM.
As for `CC(=O)c1cn(CC(=O)N2C[C@H](F)C[C@H]2C(=O)Nc2cccc(-c3ccccc3Cl)c2F)c2cc(Oc3ncccn3)ccc12` [Compound 32, (2S,4R)-1-(2-(3-Acetyl-6-(pyrimidin-2-yloxy)-1H-indol-1-yl)acetyl)-N-(2′-chloro-2-fluoro-[1,1′-biphenyl]-3-yl)-4-fluoropyrrolidine-2-carboxamide], the IC50 under setting [1] is below 1000 nM.
Take `CC(=O)c1cn(CC(=O)N2C[C@H](F)C[C@H]2C(=O)Nc2cccc(-c3ccccc3Cl)c2F)c2ccc(Oc3ncc(Br)cn3)cc12` [Compound 33, (2S,4R)-1-(2-(3-Acetyl-5-((5-bromopyrimidin-2-yl)oxy)-1H-indol-1-yl)acetyl)-N-(2′-chloro-2-fluoro-[1,1′-biphenyl]-3-yl)-4-fluoropyrrolidine-2-carboxamide]: the IC50 under setting [1] is below 1000 nM.
Still for that read-out and setting: the value for `CC(=O)c1cn(CC(=O)N2[C@@H]3C[C@@H]3C[C@H]2C(=O)Nc2cccc(-c3ccccc3Cl)c2F)c2ccc(Oc3ncc(Br)cn3)cc12` [Compound 34, (1R,3S,5R)-2-(2-(3-Acetyl-5-((5-bromopyrimidin-2-yl)oxy)-1H-indol-1-yl)acetyl)-N-(2′-chloro-2-fluoro-[1,1′-biphenyl]-3-yl)-2-azabicyclo[3.1.0]hexane-3-carboxamide] was below 1000 nM; that for `CC(=O)c1cn(CC(=O)N2C[C@H](F)C[C@H]2C(=O)Nc2cccc(Br)n2)c2ccc(Oc3ncc(Br)cn3)cc12` [Compound 35, (2S,4R)-1-(2-(3-acetyl-5-(5-bromopyrimidin-2-yloxy)-1H-indol-1-yl)acetyl)-N-(6-bromopyridin-2-yl)-4-fluoropyrrolidine-2-carboxamide] was below 1000 nM; that for `CC(=O)c1cn(CC(=O)N2C[C@H](F)C[C@H]2C(=O)Nc2cccc(-c3ccccc3Cl)c2F)c2ccc(Oc3cnc(C#N)nc3)cc12` [Compound 36, (2S,4R)-1-(2-(3-acetyl-5-(2-cyanopyrimidin-5-yloxy)-1H-indol-1-yl)acetyl)-N-(2′-chloro-2-fluorobiphenyl-3-yl)-4-fluoropyrrolidine-2-carboxamide] was below 1000 nM.
The same measure, in the same setting: with `CC(=O)c1cn(CC(=O)N2C[C@H](F)C[C@H]2C(=O)Nc2cccc(-c3ccccc3Cl)c2F)c2ccc(Oc3ncc(F)cn3)cc12` [Compound 37, (2S,4R)-1-(2-(3-acetyl-5-(5-fluoropyrimidin-2-yloxy)-1H-indol-1-yl)acetyl)-N-(2′-chloro-2-fluorobiphenyl-3-yl)-4-fluoropyrrolidine-2-carboxamide] the figure was below 1000 nM; with `CC(=O)c1cn(CC(=O)N2C[C@H](F)C[C@H]2C(=O)Nc2cccc(-c3ccccc3Cl)c2F)c2ccc(Oc3ncccn3)cc12` [Compound 38, (2S,4R)-1-(2-(3-acetyl-5-(pyrimidin-2-yloxy)-1H-indol-1-yl)acetyl)-N-(2′-chloro-2-fluorobiphenyl-3-yl)-4-fluoropyrrolidine-2-carboxamide], below 1000 nM.
The same measure, in the same setting: the value for `CC(=O)c1cn(CC(=O)N2C[C@H](F)C[C@H]2C(=O)Nc2cccc(Br)n2)c2ccc(Oc3ncccn3)cc12` [Compound 39, (2S,4R)-1-(2-(3-acetyl-5-(pyrimidin-2-yloxy)-1H-indol-1-yl)acetyl)-N-(6-bromopyridin-2-yl)-4-fluoropyrrolidine-2-carboxamide] was below 1000 nM; that for `CC(=O)c1cn(CC(=O)N2C[C@H](F)C[C@H]2C(=O)Nc2cccc(-c3ccccc3Cl)c2F)c2ccc(Oc3ncc(C)cn3)cc12` [Compound 40, (2S,4R)-1-(2-(3-acetyl-5-(5-methylpyrimidin-2-yloxy)-1H-indol-1-yl)acetyl)-N-(2′-chloro-2-fluorobiphenyl-3-yl)-4-fluoropyrrolidine-2-carboxamide] was below 1000 nM.
Regarding `CC(=O)c1cn(CC(=O)N2C[C@H](F)C[C@H]2C(=O)Nc2cccc(Br)n2)c2ccc(Oc3ncc(C)cn3)cc12` [Compound 41, (2S,4R)-1-(2-(3-acetyl-5-(5-methylpyrimidin-2-yloxy)-1H-indol-1-yl)acetyl)-N-(6-bromopyridin-2-yl)-4-fluoropyrrolidine-2-carboxamide], under setting [1], the IC50 was below 1000 nM.
Same read-out and setting: the value for `CC(=O)c1cn(CC(=O)N2C[C@H](F)C[C@H]2C(=O)Nc2cccc(-c3ccccc3Cl)c2F)c2ccc(Oc3ncc(C(F)(F)F)cn3)cc12` [Compound 42, (2S,4R)-1-(2-(3-acetyl-5-(5-(trifluoromethyl)pyrimidin-2-yloxy)-1H-indol-1-yl)acetyl)-N-(2′-chloro-2-fluorobiphenyl-3-yl)-4-fluoropyrrolidine-2-carboxamide] was below 1000 nM.
Consider `CC(=O)c1cn(CC(=O)N2C[C@H](F)C[C@H]2C(=O)Nc2cccc(-c3ccccc3Cl)c2F)c2ccc(Oc3cnc(Cl)nc3)cc12` [Compound 43, (2S,4R)-1-(2-(3-acetyl-5-(2-chloropyrimidin-5-yloxy)-1H-indol-1-yl)acetyl)-N-(2′-chloro-2-fluorobiphenyl-3-yl)-4-fluoropyrrolidine-2-carboxamide], for which the IC50 was below 1000 nM.
Take `CC(=O)c1cn(CC(=O)N2C[C@H](F)C[C@H]2C(=O)Nc2cccc(-c3ccccc3Cl)c2F)c2ccc(O[C@@H]3CO[C@H]4[C@@H]3OC[C@H]4O)cc12` [Compound 44]: under setting [2], the IC50 is below 1000 nM.
The same measure, in the same setting: the value for `CC(=O)c1cn(CC(=O)N2C[C@H](F)C[C@H]2C(=O)Nc2cccc(Br)n2)c2ccc(O[C@@H]3CO[C@H]4[C@@H]3OC[C@H]4O)cc12` [Compound 45, (2S,4R)-1-(2-(3-acetyl-5-((3R,3aR,6R,6aR)-6-hydroxyhexahydrofuro[3,2-b]furan-3-yloxy)-1H-indol-1-yl)acetyl)-N-(6-bromopyridin-2-yl)-4-fluoropyrrolidine-2-carboxamide] was below 1000 nM; that for `CO[C@@H]1CO[C@H]2[C@@H]1OC[C@H]2Oc1ccc2c(c1)c(C(C)=O)cn2CC(=O)N1C[C@H](F)C[C@H]1C(=O)Nc1cccc(-c2ccccc2Cl)c1F` [Compound 46, (2S,4R)-1-(2-(3-acetyl-5-((3R,3aR,6R,6aR)-6-methoxyhexahydrofuro[3,2-b]furan-3-yloxy)-1H-indol-1-yl)acetyl)-N-(2′-chloro-2-fluorobiphenyl-3-yl)-4-fluoropyrrolidine-2-carboxamide] was below 1000 nM; that for `CO[C@@H]1CO[C@H]2[C@@H]1OC[C@H]2Oc1ccc2c(c1)c(C(C)=O)cn2CC(=O)N1C[C@H](F)C[C@H]1C(=O)Nc1cccc(Br)n1` [Compound 47, (2S,4R)-1-(2-(3-acetyl-5-((3R,3aR,6R,6aR)-6-methoxyhexahydrofuro[3,2-b]furan-3-yloxy)-1H-indol-1-yl)acetyl)-N-(6-bromopyridin-2-yl)-4-fluoropyrrolidine-2-carboxamide] was below 1000 nM.
Take `CC(=O)c1cn(CC(=O)N2C[C@H](F)C[C@H]2C(=O)NCc2ccccc2)c2ccc(OCS(=O)(=O)NC(C)(C)C)cc12` [Compound 129, (2S,4R)-1-(2-(3-Acetyl-5-((N-(tert-butyl)sulfamoyl)methoxy)-1H-indol-1-yl)acetyl)-N-benzyl-4-fluoropyrrolidine-2-carboxamide]: the IC50 under setting [3] is below 1000 nM.
The same measure, in the same setting: with `CC(=O)c1cn(CC(=O)N2C[C@H](F)C[C@H]2C(=O)NCc2ccccc2)c2ccc(OCS(N)(=O)=O)cc12` [Compound 130, (2S,4R)-1-(2-(3-Acetyl-5-(sulfamoylmethoxy)-1H-indol-1-yl)acetyl)-N-benzyl-4-fluoropyrrolidine-2-carboxamide] the figure was below 1000 nM.
